Experimental data as given in patent US8940909B2, “Indicator platform” (Biosynth AG, priority 2009, dated 2015).

Legend:
[1] = system: beta-D-galactosidase positive/negative bacteria; test: IO staining of colonies of beta-D-galactosidase positive/negative bacteria (Table IVb), hue named in column head; type: cell-based; settings: hue of fluorescence of stained colonies; 24 h on Nutrient Agar, 150 mg/l indicator, 100 mg/l IPTG
Escherichia coli = test: IN and IO staining of bacterial colonies under anaerobic conditions; type: cell-based; settings: for D: Diffusion around colonies / G: Growth of colonies / I: Intensity of color / L: Localization on colonies / S: Size of colonies: Nutrient Agar plates, anaerobically incubated with E. coli
Description: Nutrient Agar plates containing 150 mg/l of various substrates and 100 mg/l IPTG were inoculated with Escherichia coli. Plates were put in an anaerobic jar (Anaerojar, Oxoid), an AnaeroGen sachet (Oxoid) was added, the jar was closed and incubated for 24 hours at 37° C.
IN staining cannot be used under anaerobic conditions.

[2] = target: E. coli beta-galactosidase (Escherichia coli, UniProt P00722)
Chain of E. coli beta-galactosidase (P00722 2-1024): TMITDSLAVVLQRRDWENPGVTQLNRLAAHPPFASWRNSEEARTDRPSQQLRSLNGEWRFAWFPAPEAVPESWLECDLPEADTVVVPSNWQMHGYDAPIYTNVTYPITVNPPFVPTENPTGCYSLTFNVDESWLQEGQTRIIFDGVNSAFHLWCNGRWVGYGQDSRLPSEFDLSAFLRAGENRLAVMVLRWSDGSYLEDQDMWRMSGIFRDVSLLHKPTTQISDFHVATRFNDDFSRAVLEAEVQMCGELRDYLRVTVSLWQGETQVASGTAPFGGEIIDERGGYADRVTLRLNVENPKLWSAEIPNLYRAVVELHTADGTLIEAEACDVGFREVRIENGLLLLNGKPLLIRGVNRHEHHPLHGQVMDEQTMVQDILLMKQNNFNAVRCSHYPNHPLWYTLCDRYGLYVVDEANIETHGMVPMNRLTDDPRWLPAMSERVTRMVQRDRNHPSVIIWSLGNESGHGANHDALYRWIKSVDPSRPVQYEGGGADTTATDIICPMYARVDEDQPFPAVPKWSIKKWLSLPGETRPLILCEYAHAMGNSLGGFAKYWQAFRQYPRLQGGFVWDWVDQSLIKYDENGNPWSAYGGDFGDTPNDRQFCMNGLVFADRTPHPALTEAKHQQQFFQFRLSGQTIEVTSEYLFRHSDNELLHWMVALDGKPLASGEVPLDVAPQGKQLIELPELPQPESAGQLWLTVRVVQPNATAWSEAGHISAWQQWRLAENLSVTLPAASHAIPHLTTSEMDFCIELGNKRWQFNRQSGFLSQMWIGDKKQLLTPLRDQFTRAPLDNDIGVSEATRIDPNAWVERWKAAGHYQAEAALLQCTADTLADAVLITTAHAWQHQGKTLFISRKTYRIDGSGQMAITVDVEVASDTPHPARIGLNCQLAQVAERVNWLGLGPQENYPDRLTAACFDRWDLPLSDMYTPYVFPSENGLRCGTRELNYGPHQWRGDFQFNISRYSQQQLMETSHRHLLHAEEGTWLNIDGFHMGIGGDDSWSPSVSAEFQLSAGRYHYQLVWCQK
Description: Enzymatic reactions were performed in 100 mM Na2PO4 buffer, pH 7.3 containing 1 mM MgCl2 and 670 mg/l enzyme substrate. E. coli beta-galactosidase or K. lactis lactase were added to a final concentration of 1000 U/I or 1500 U/I, respectively. 30 ml reaction volumes were incubated for 5-18 hours at 37° C. with gentle shaking. The reaction product was collected by centrifugation (4400 g, 15 min), pellets were washed with 10 ml H2O and centrifuged again (4400 g, 15 min).

enteric bacterial cells = test: MDAB staining of bacterial colonies with indicators I4a and I5a on Tryptic Soy Agar, aerobic and anaerobic; type: cell-based; settings: Salmonella manhattan (b-gal −); aR MDAB, equivalents 1:1; TSAYE with 40 mg/100 ml of indicator
Description: Tryptic Soy Agar (TSA) with yeast extract (0.6%) was used as the base plating medium. The media were autoclaved at 121° C. for 15 minutes and placed in a 50° C. water bath to cool. Indicators were added to the basal medium at a final concentration of 40 mg/100 ml (from 80 mg/ml stock solutions in DMF). Over night cultures of enteric bacterial cells in Brain Heart Infusion Broth were streaked onto the plates and incubated at 35° C. for 24 hours under aerobic and anaerobic conditions. After incubation, the colonial morphologies on the plates were recorded (Table III).
Weak staining was observed occasionally due to residual oxygen (micro-anaerobic conditions). Under aerobic conditions indigo (IN-stains) generally dominated the effects of MDAB staining. For example indicator system I4a/MDAB stained colonies violet under anaerobic but indigo blue under aerobic conditions.

Shigella sonnei 133 = test: IO staining of colonies of beta-D-galactosidase positive/negative bacteria (Table IVb); type: cell-based; settings: Shigella sonnei strain 133, b-gal +/−; 24 h on Nutrient Agar, 150 mg/l indicator, 100 mg/l IPTG; for C: Color of colonies: key: −: absent; +/−: weak; +: strong; ++: very strong; for G: Growth of colonies: key: −: absent; +/−: weak; +: strong; ++: very strong
[3] = system: Klebsiella pneumoniae 164; test: as above; type: cell-based; settings: Klebsiella pneumoniae strain 164, b-gal +; 24 h on Nutrient Agar, 150 mg/l indicator, 100 mg/l IPTG; for C: Color of colonies: key: −: absent; +/−: weak; +: strong; ++: very strong; for G: Growth of colonies: key: −: absent; +/−: weak; +: strong; ++: very strong
Klebsiella pneumoniae = test: IO staining of bacterial colonies on Blood Agar plates; type: cell-based; settings: 24 h on Blood Agar, 150 mg/l I21a and 100 mg/l IPTG; for Growth: key: −: absent; +/−: weak; +: strong; ++: very strong
Description: Standard commercially available Blood Agar plates were impregnated with 150 mg/l 1-(2-benzoylphenyl)-6-chloro-1H-indol-3-yl-beta-D-galactopyranoside (I21a) and 100 mg/l IPTG. The plate was inoculated with Klebsiella pneumoniae.
IO stain contrasts very well with the agar plate. Further, despite the quenching effect of blood IO fluorescence is fully maintained and readily detectable.

[4] = system: beta-galactosidase negative Salmonella enteritidis (RKI 05/07992); type: cell-based; settings: S. enteritidis (b-gal negative), 24 h, 150 mg/l substrate and 100 mg/l IPTG; note: key: −: absent; +/−: weak; +: strong; ++: very strong
Description: (§1) Nutrient Agar (5 g/l peptone, 5 g/l NaCl, 2 g/l yeast extract, 1 g/l beef extract, 13 g/l agar, pH 7.4) was autoclaved and allowed to cool to 50° C. Then indicators were added to final concentrations of 150 mg/l (from a 20 mg/ml stock solution in DMF).
(§2) Optionally IPTG was added to 100 mg/l (from a 100 mg/ml stock solution in H2O) and plates were poured. Agar plates were inoculated with cultures of beta-galactosidase positive Eschericha coli (NM1) or beta-galactosidase negative Salmonella enteritidis (RKI 05/07992) (pre-grown on nutrient broth for 8-18 hours) and incubated at 37° C. Plates were inspected at 16, 20, 24 and 48 hours and pictures were recorded at 18, 24, and 48 hours with a Digistore 2 Image documentation system (CAMAG) under white light.
(§3) A considerable number of indicators molecules (Table IVa, IVb) and a selection of labile groups (Table IVc) were tested with various microbial species producing different biomarker enzymes (external stimuli, eS). The color of stains ranges from yellow to red.
(§4) Plating media from Example 10 were examined under 366 nm UV irradiation at 16, 20, 24 and 48 hours for fluorescence by means of Digistore 2 Image documentation system (CAMAG). Loops of bacterial cells, grown for 48 hours on Nutrient Agar plates containing 150 mg/l beta-D-galactosidase indicator and 100 mg/l IPTG, were directly streaked into wells of black clear bottom microtiter plates. Fluorescence scans were recorded on a Spectramax M5 (Molecular Devices).

[5] = system: beta-galactosidase positive Eschericha coli (NM1); test: IO staining of bacterial colonies on Nutrient Agar (color, fluorescence, localization, growth); for C: Color of colonies (strength): key: −: absent; +/−: weak; +: strong; ++: very strong; for F: Fluorescence of colonies (strength): key: −: absent; +/−: weak; +: strong; ++: very strong; for G: Growth of colonies: key: −: absent; +/−: weak; +: strong; ++: very strong; type: cell-based, E. coli; settings: 150 mg/l substrate and 100 mg/l IPTG
Description: as §1, §2, §3, §4

Molecule	F: Fluorescence of colonies (hue) [1]	D: Diffusion around colonies (Escherichia coli)	G: Growth of colonies (Escherichia coli)	I: Intensity of color (Escherichia coli)	L: Localization on colonies (Escherichia coli)	S: Size of colonies (Escherichia coli)	C: Color of colonies (Shigella sonnei 133)	F: Fluorescence of colonies (Shigella sonnei 133)	G: Growth of colonies (Shigella sonnei 133)	C: Color of colonies [3]	F: Fluorescence of colonies [3]	G: Growth of colonies [3]	further results
5-Bromo-4-chloro-1H-indol-3-yl-beta-D-galactopyranoside [Indicator I4a, reference compound]	−	++	+/−	+/−	−	pinpoint	+	−	+	++	−	+	IN staining under anaerobic conditions (Escherichia coli; E. coli, anaerobic): failure; Signal upon incubation with beta-D-galactosidase in the absence of oxygen ([2]; blend with MDAB, absence of oxygen): pink dye; colonial morphology, aerobic conditions (enteric bacterial cells): Cream colored colonies; colonial morphology, microaerobic (anaerobic) conditions (enteric bacterial cells): Cream colored colonies
O=C(c1ccccc1)c1ccccc1-n1cc(O[C@@H]2O[C@H](CO)[C@H](O)[C@H](O)[C@H]2O)c2ccc(Cl)cc21 [Indicator I21a, 1-(2-Benzoylphenyl)-6-chloro-1H-indol-3-yl-beta-D-galactopyranoside]	y-g	+/−	+	+	+	0.7 mm	+	+	+	+	+	+	Color of colonies UV (366 nm) (Klebsiella pneumoniae): Yellow-orange on a dark background; Color of colonies white/visible (Klebsiella pneumoniae): Yellow; Growth (Klebsiella pneumoniae): +; Product of incubation with beta-D-galactosidase ([2]; 24 h): bright yellow precipitate
COc1ccc(C(=O)c2ccccc2-n2cc(O[C@@H]3O[C@H](CO)[C@H](O)[C@H](O)[C@H]3O)c3c(Cl)c(Br)ccc32)c(OC)c1 [Indicator I28a, 5-Bromo-4-chloro-1-[2-(2,4-dimethoxybenzoyl)phenyl]-1H-indol-3-yl-beta-D-galactopyranoside]							+	+/−	+	+	+/−	+	C: Color of colonies (strength) [4]: −; F: Fluorescence of colonies (strength) ([4]; 366 nm UV): −; F: Fluorescence of colonies (colour) ([5]; 24 h, 366 nm UV): (red); C: Color of colonies (colour of stain) ([5]; 24 h on Nutrient Agar): orange; G: Growth of colonies ([5]; E. coli, 24 h): +; L: Localization of stain on colonies ([5]; E. coli, 24 h): +; F: Fluorescence of colonies (strength) ([5]; E. coli, 24 h, 366 nm UV): +/−; C: Color of colonies (strength) ([5]; E. coli, 24 h on Nutrient Agar): +
